Source: PMC6880817, “Palladium-catalyzed synthesis and nucleotide pyrophosphatase inhibition of benzo[4,5]furo[3,2-b]indoles” (Beilstein Journal of Organic Chemistry, 2019)

Biological target: T1, h-NPP-1 (Homo sapiens, UniProt P22413)
T1 construct: made in house; host or cells: COS-7 cells transiently transfected with a plasmid expressing human NPP-1; lysate/membrane fraction used as the enzyme
T1 sequence (P22413 1-925): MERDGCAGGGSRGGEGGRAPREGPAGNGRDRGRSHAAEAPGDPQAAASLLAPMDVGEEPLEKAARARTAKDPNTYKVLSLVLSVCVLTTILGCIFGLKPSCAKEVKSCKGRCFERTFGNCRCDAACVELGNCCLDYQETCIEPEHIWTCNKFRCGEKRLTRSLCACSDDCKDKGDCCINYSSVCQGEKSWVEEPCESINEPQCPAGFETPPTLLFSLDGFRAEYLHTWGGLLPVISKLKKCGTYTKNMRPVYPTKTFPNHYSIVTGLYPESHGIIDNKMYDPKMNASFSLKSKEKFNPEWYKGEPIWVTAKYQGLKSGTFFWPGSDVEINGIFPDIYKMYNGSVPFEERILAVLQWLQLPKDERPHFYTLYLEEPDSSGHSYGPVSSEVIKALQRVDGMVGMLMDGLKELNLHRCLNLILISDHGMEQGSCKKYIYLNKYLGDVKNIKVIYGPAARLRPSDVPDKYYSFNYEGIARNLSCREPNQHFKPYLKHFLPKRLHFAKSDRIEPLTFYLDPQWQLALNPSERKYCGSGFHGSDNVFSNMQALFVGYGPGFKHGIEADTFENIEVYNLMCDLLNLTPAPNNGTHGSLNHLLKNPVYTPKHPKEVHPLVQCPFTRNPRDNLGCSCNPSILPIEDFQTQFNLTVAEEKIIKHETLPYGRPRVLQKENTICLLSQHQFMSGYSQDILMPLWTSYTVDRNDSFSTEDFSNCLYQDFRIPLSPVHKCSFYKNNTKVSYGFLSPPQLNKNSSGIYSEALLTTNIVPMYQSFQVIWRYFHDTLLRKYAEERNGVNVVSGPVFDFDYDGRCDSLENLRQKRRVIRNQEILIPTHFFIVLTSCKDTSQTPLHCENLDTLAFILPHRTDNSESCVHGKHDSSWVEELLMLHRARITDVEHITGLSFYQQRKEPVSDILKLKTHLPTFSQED
Assay: Nucleotide pyrophosphatase inhibition assay (colorimetric, pNP-TMP substrate), h-NPP-1
Assay type: biochemical
Conditions: human recombinant NPP1, pNP-TMP substrate, pH 9.5, 37 °C, absorbance 405 nm; read-out: h-NPP-1 IC50 (µM) ± SEM
Protocol: (§1) The inhibition potential of all the sulphonate derivatives against NPP1 and NPP3, was determined by considering an already reported colorimetric method with minor modifications. The reaction buffer was comprised of 50 mM Tris-hydrochloric acid, 5 mM magnesium chloride (MgCl2) and 0.1 mM zinc chloride (ZnCl2) with final pH 9.5. For initial screening of compounds, first enzyme and substrate parameters (concentration, temperature, time) were optimized. The reaction assay was performed at 100 µL well volume containing assay buffer, 10 µL of 1 mM test compound prepared in 10% DMSO, enzymes NPP1 (35 ng), NPP3 (94 ng) and assay buffer. The reaction mixture was incubated at 37 °C, 10 minutes for NPP1 and NPP3. Absorbance was taken at wavelength of 405 nm as pre-read by using a microplate reader (BioTek FLx800, Instruments, Inc. USA). After pre-read the artificial substrate p-nitrophenyl 5'-thymidine monophosphate (pNP-TMP), 400 µM for NPP1 and 600 µM in case of NPP3, was added followed by a second incubation at 37 °C, 15 minutes for NPP1 and NPP3. Absorbance was taken as after read. All the experiments were performed in triplicate.
(§2) Cell transfection with human NPPs. Analogous as previously described, COS-7 cells were transfected with plasmids expressing human NPPs ((NPP-1) or (NPP-3)) in 10 cm plates, by using Lipofectamine. The confluent cells were incubated for 5 h at 37 °C in DMEM/F-12 in the absence of fetal bovine serum and with 6 µg of plasmid DNA and 24 µL of lipofectamine reagent. Subsequently, the same volume of DMEM/F-12 containing 20% FBS was added to stop the transfection and cells were harvested 48–72 h later.
(§3) Preparation of membrane fractions. Analogous as previously described, the transfected cells were washed three times with Tris–saline buffer at 4 °C and then the cells were collected by scraping in the harvesting buffer (95 mM NaCl, 0.1 mM PMSF, and 45 mM Tris buffer, pH 7.5). Afterwards, the cells were washed twice by centrifugation at 300g for 5 min at 4 °C [4]. These cells were resuspended in the harvesting buffer containing 1 0 µg/mL aprotinin and then sonicated. Cellular and nuclear debris were discarde d by 10 min centrifugation (300 g at 4 °C). Glycerol (final concentration of 7.5%) was added to the resulting supernatant and all the samples were kept at −80 °C until used. Bra dford microplate assay was used for the estimation of protein concentration. Bovine serum albumin was used as a reference standard.
(§4) Protocol of nucleotide pyrophosphatase (h -NPP-1 & h-NPP-3) activity. Analogous as previously described , the conditions for the assay were optimized with the slight modifications in previously used spectrophotometric method. The reaction was carried out in the assay buffer which contained 5 mM MgCl 2, 0.1 mM ZnCl 2, 25% glycerol and 50 mM tris-hydrochloride (pH: 9.5). Initial screening was performed at a concentration of 0.1 mM of the tested compounds. The total volume of 100 µL contained 70 µL of the assay buffer, 10 µL of tested compound (0.1 mM with final DMSO 1% (v/v)) and 10 µL of h -NPP-1 (27 ng of protein from CO S cell lysate in assay buffer ) or 10 µL of h -NPP-3 (25 ng of protein from COS cell lysate in assay buffer ). The mixture was pre -incubated for 10 minutes at 37 °C and absorbance was measured at 405 nm as pre -read using microplate reader (BioTek FLx800, Instruments, Inc. USA). The reaction was then initiated by the addition of 10 µL of p-Nph-5-TMP substrate at a final concentration of 0.5 mM and the reaction mixture was incubated for 30 more min at 37 °C. The change in the absorbance was measured as after -read. The activity of each compound was compared with the reaction in absence of tested compounds/inhibitors.
(§5) 3 activity were further evaluated for determination of IC 50 values. For this purpose, their dose response curves were obtained by assaying each inhibitor concentration against both NPPs […]
(§6) using the above mentioned reaction conditions. […]
Compound `c1ccc(Cn2c3ccccc3c3oc4c5ccccc5n(Cc5ccccc5)c4c32)cc1` [Compound 6e] has an IC50 of 0.53 ± 0.09 µM.
`c1ccc(-n2c3ccccc3c3oc4ccccc4c32)cc1` [Compound 5a] gave an IC50 of over 100 µM.
With `COc1ccc(-n2c3ccccc3c3oc4ccccc4c32)cc1` [Compound 5e] the IC50 was over 100 µM.
For `c1ccc(Cn2c3ccccc3c3oc4ccccc4c32)cc1` [Compound 5h], the IC50 was 2.62 ± 0.03 µM.
In the case of `FC(F)(F)c1cccc(-n2c3ccccc3c3oc4c5ccccc5n(-c5cccc(C(F)(F)F)c5)c4c32)c1` [Compound 6c], the IC50 is reported as over 100 µM.
For `Cc1ccc(-n2c3ccccc3c3oc4ccccc4c32)cc1` [Compound 5b], the IC50 was 2.84 ± 0.06 µM.
In the case of `c1ccc2c(c1)oc1c3ccccc3n(C3CCCCC3)c21` [Compound 5j], the IC50 is reported as 6.14 ± 0.09 µM.
With `COc1ccc(-n2c3ccccc3c3oc4c5ccccc5n(-c5ccc(OC)cc5)c4c32)cc1` [Compound 6d] the IC50 was 1.38 ± 0.09 µM.
For `Fc1ccc(-n2c3ccccc3c3oc4c5ccccc5n(-c5ccc(F)cc5)c4c32)cc1` [Compound 6b], the IC50 was over 100 µM.
Work on `FC(F)(F)c1cccc(-n2c3ccccc3c3oc4ccccc4c32)c1` [Compound 5d] yielded an IC50 of 3.57 ± 0.03 µM.
With `CCCCCCCn1c2ccccc2c2oc3ccccc3c21` [Compound 5i] the IC50 was 3.27 ± 0.08 µM.

Same assay, conditions: read-out: inhibitory value for h-NPP-1, IC50 ± SEM
With `Cc1ccc(-n2c3ccccc3c3oc4c5ccccc5n(-c5ccc(C)cc5)c4c32)cc1` [Compound 6a] the IC50 was 0.11 ± 0.06 µM.

Same assay, conditions: result in words
For `FC(F)(F)c1cccc(-n2c3ccccc3c3oc4c5ccccc5n(-c5cccc(C(F)(F)F)c5)c4c32)c1` [Compound 6c], the “interaction with enzyme h-NPP-1” value was “no interaction with enzyme h-NPP-1”.
In the case of `Fc1ccc(-n2c3ccccc3c3oc4c5ccccc5n(-c5ccc(F)cc5)c4c32)cc1` [Compound 6b], the “interaction with enzyme h-NPP-1” value is reported as “no interaction with enzyme h-NPP-1”.

System: not given
Assay: not given
Conditions: not given
With `c1ccc(-n2c3ccccc3c3oc4ccccc4c32)cc1` [Compound 5a] the melting point was 137 to 139 °C.
`COc1ccc(-n2c3ccccc3c3oc4ccccc4c32)cc1OC` [Compound 5f] showed a melting point of 175 to 176 °C.
With `Cc1ccc(-n2c3ccccc3c3oc4ccccc4c32)cc1` [Compound 5b] the melting point was 134 to 135 °C.
With `c1ccc2c(c1)oc1c3ccccc3n(C3CCCCC3)c21` [Compound 5j] the melting point was 163 to 164 °C.
`FC(F)(F)c1cccc(-n2c3ccccc3c3oc4ccccc4c32)c1` [Compound 5d] gave a melting point of 178 to 179 °C.

Biological target: T2, h-NPP-3 (Homo sapiens, UniProt O14638)
T2 construct: made in house; host or cells: COS-7 cells transiently transfected with a plasmid expressing human NPP-3; lysate/membrane fraction used as the enzyme
T2 sequence (O14638 1-875): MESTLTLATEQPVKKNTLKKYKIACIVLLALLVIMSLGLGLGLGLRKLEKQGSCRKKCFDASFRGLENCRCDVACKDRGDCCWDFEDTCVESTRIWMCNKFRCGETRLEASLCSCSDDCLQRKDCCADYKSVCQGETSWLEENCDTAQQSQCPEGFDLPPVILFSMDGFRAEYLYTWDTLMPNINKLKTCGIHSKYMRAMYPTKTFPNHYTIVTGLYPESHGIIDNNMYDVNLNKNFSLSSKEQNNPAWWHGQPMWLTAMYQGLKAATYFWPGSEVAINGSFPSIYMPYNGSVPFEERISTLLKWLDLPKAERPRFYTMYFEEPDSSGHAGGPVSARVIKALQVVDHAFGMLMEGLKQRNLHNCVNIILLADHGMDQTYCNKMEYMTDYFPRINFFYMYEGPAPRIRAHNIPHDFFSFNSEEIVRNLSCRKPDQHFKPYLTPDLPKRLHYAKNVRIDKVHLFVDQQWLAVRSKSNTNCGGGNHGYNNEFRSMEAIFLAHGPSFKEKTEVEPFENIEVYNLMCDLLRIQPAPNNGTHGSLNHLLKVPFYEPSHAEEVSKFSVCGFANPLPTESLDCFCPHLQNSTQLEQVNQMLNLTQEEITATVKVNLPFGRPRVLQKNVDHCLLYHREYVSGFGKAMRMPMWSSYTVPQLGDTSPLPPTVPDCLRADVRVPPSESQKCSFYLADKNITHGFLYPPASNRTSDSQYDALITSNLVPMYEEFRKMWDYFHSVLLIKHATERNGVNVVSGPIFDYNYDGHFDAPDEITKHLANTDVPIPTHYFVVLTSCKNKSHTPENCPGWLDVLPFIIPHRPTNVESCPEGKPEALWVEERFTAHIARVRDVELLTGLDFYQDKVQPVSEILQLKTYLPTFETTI
Assay: Nucleotide pyrophosphatase inhibition assay (colorimetric, pNP-TMP substrate), h-NPP-3
Assay type: biochemical
Conditions: h-NPP-3 versus h-NPP-1, result in words
Protocol: as §1, §2, §3, §4, §5, §6
For `c1ccc(-n2c3ccccc3c3oc4ccccc4c32)cc1` [Compound 5a], the “selectivity of inhibitory response towards h-NPP-3” value was “selective inhibitory response towards nucleotide pyrophosphatase enzyme h-NPP-3”.
With `COc1ccc(-n2c3ccccc3c3oc4ccccc4c32)cc1` [Compound 5e] the “selectivity of inhibitory response towards h-NPP-3” value was “selective inhibitory response towards nucleotide pyrophosphatase enzyme h-NPP-3”.
In the case of `FC(F)(F)c1cccc(-n2c3ccccc3c3oc4c5ccccc5n(-c5cccc(C(F)(F)F)c5)c4c32)c1` [Compound 6c], the “selectivity of inhibitory response towards h-NPP-3” value is reported as “highly selective towards h-NPP-3”.
For `Fc1ccc(-n2c3ccccc3c3oc4c5ccccc5n(-c5ccc(F)cc5)c4c32)cc1` [Compound 6b], the “selectivity of inhibitory response towards h-NPP-3” value was “highly selective towards h-NPP-3”.

Same assay, conditions: human recombinant NPP3, pNP-TMP substrate, pH 9.5, 37 °C, absorbance 405 nm; read-out: h-NPP-3 IC50(µM) ± SEM
In the case of `c1ccc(Cn2c3ccccc3c3oc4c5ccccc5n(Cc5ccccc5)c4c32)cc1` [Compound 6e], the IC50 is reported as 0.21 ± 0.04 µM.
`c1ccc(-n2c3ccccc3c3oc4ccccc4c32)cc1` [Compound 5a] showed an IC50 of 1.38 ± 0.03 µM.
Compound `c1ccc(Cn2c3ccccc3c3oc4ccccc4c32)cc1` [Compound 5h] has an IC50 of 0.27 ± 0.06 µM.
Compound `Cc1ccc(-n2c3ccccc3c3oc4ccccc4c32)cc1` [Compound 5b] has an IC50 of 0.59 ± 0.02 µM.
With `c1ccc2c(c1)oc1c3ccccc3n(C3CCCCC3)c21` [Compound 5j] the IC50 was 2.39 ± 0.05 µM.
`COc1ccc(-n2c3ccccc3c3oc4c5ccccc5n(-c5ccc(OC)cc5)c4c32)cc1` [Compound 6d] showed an IC50 of 0.18 ± 0.01 µM.
For `FC(F)(F)c1cccc(-n2c3ccccc3c3oc4ccccc4c32)c1` [Compound 5d], the IC50 was 0.49 ± 0.04 µM.
Compound `Cc1ccc(-n2c3ccccc3c3oc4c5ccccc5n(-c5ccc(C)cc5)c4c32)cc1` [Compound 6a] has an IC50 of 0.61 ± 0.09 µM.
`CCCCCCCn1c2ccccc2c2oc3ccccc3c21` [Compound 5i] showed an IC50 of 2.55 ± 0.07 µM.

Same assay, conditions: read-out: h-NPP-3 IC50 ± SEM (unit inferred)
`FC(F)(F)c1cccc(-n2c3ccccc3c3oc4c5ccccc5n(-c5cccc(C(F)(F)F)c5)c4c32)c1` [Compound 6c] gave an IC50 of 0.28 ± 0.04 µM.
Work on `Fc1ccc(-n2c3ccccc3c3oc4c5ccccc5n(-c5ccc(F)cc5)c4c32)cc1` [Compound 6b] yielded an IC50 of 0.13 ± 0.06 µM.

Same assay, conditions: read-out: inhibitory value for h-NPP-3, IC50 ± SEM
In the case of `COc1ccc(-n2c3ccccc3c3oc4ccccc4c32)cc1` [Compound 5e], the IC50 is reported as 0.26 ± 0.01 µM.
